Columns and labels:
[1] = Cytotoxicity against human RD cells; type: cell-based
Human alphaherpesvirus 1 = assay: Antiviral activity against HSV1 by plaque reduction assay; type: functional, organism-based
Human alphaherpesvirus 2 = assay: Antiviral activity against HSV2 by plaque reduction assay; type: functional, organism-based

IC50 (Human alphaherpesvirus 1)	IC50 (Human alphaherpesvirus 2)	SMILES	CC50 [1]
3.84 µM	> 25 µM	Cc1cccc(NC(=S)NNC2=c3ccccc3=NC2=O)c1	> 25 µM
> 25 µM	> 25 µM	Cc1ccc(NC(=S)N/N=C2\C(=O)Nc3ccccc32)cc1	> 25 µM
> 25 µM	> 25 µM	COc1ccccc1NC(=S)N/N=C1\C(=O)Nc2ccccc21	> 25 µM
2.64 µM	> 25 µM	COc1cccc(NC(=S)N/N=C2\C(=O)Nc3ccccc32)c1	> 25 µM
> 25 µM	> 25 µM	O=C1Nc2ccccc2/C1=N/NC(=S)Nc1ccccc1Cl	> 25 µM
> 25 µM	> 25 µM	O=C1Nc2ccccc2/C1=N/NC(=S)Nc1cccc(Cl)c1	> 25 µM
3.29 µM	> 25 µM	O=C1Nc2ccccc2/C1=N/NC(=S)Nc1ccc(Br)cc1	> 25 µM
> 25 µM	> 25 µM	O=C(N/N=C1\C(=O)Nc2ccccc21)Nc1ccccc1	> 25 µM
> 25 µM	> 25 µM	O=C1Nc2ccc(Cl)cc2/C1=N/NC(=S)Nc1ccccc1	> 25 µM
> 25 µM	> 25 µM	CN1C(=O)/C(=N\NC(=S)Nc2ccccc2)c2ccccc21	> 25 µM
> 25 µM	5.8 µM	O=C1Nc2ccccc2/C1=N/NC(=S)N1CCCC1	> 25 µM
> 25 µM	3.14 µM	O=C1Nc2ccccc2/C1=N/NC(=S)N1CCCCC1	> 25 µM
> 25 µM	> 25 µM	CNC(=S)N/N=C1\C(=O)Nc2ccccc21	> 25 µM
> 25 µM	> 25 µM	CCNC(=S)N/N=C1\C(=O)Nc2ccccc21	> 25 µM
> 25 µM	> 25 µM	O=C1Nc2ccc(F)cc2/C1=N/NC(=S)Nc1ccccc1	> 25 µM
5.9 µM	> 25 µM	O=C1Nc2ccc(OC(F)(F)F)cc2/C1=N/NC(=S)Nc1ccccc1	> 25 µM
> 25 µM	> 25 µM	Cc1ccc2c(c1)/C(=N/NC(=S)Nc1ccccc1)C(=O)N2	> 25 µM
1.3 µM	2.74 µM	O=C1Nc2ccccc2/C1=N/NC(=S)N1CCOCC1	> 25 µM
> 25 µM	> 25 µM	CCCN(CCC)C(=S)N/N=C1/C(=O)Nc2ccccc21	> 25 µM
0.3 µM	1.27 µM	Nc1nc2c(ncn2COCCO)c(=O)[nH]1 [ACYCLOVIR]	> 25 µM

Continued, molecule first:

SMILES	IC50 (Human alphaherpesvirus 1)	IC50 (Human alphaherpesvirus 2)	CC50 [1]
O=C1Nc2ccccc2/C1=N/NC(=S)Nc1ccccc1	2.97 µM	> 25 µM	> 25 µM
Cc1ccccc1NC(=S)N/N=C1\C(=O)Nc2ccccc21	> 25 µM	> 25 µM	> 25 µM
O=C1Nc2ccccc2/C1=N/NC(=S)Nc1ccc(F)cc1	> 25 µM	> 25 µM	> 25 µM
O=C1Nc2ccccc2/C1=N/NC(=S)Nc1ccc(Cl)cc1	2.69 µM	> 25 µM	> 25 µM
O=C1Nc2ccccc2/C1=N/NC(=S)Nc1ccc(-n2cccn2)cc1	6.21 µM	> 25 µM	> 25 µM
O=C1Nc2ccccc2/C1=N/NC(=S)Nc1ccc(N2CCOCC2)cc1	> 25 µM	> 25 µM	> 25 µM
Cc1cccc(NC(=O)N/N=C2\C(=O)Nc3ccccc32)c1	> 25 µM	> 25 µM	> 25 µM
Cc1ccc(NC(=O)N/N=C2\C(=O)Nc3ccccc32)cc1	> 25 µM	> 25 µM	> 25 µM
COc1cccc(NC(=O)N/N=C2\C(=O)Nc3ccccc32)c1	> 25 µM	> 25 µM	> 25 µM
O=C1Nc2ccc(Br)cc2/C1=N/NC(=S)Nc1ccccc1	> 25 µM	> 25 µM	> 25 µM
COc1ccc2c(c1)/C(=N/NC(=S)Nc1ccccc1)C(=O)N2	5.01 µM	> 25 µM	> 25 µM
CCN1C(=O)/C(=N\NC(=S)Nc2ccccc2)c2ccccc21	> 25 µM	> 25 µM	> 25 µM
O=C1/C(=N\NC(=S)Nc2ccccc2)c2ccccc2N1c1ccccc1	> 25 µM	> 25 µM	> 25 µM
O=C1/C(=N\NC(=S)Nc2ccccc2)c2ccccc2N1Cc1ccccc1	> 25 µM	> 25 µM	> 25 µM
CCN(CC)C(=S)N/N=C1\C(=O)Nc2ccccc21	> 25 µM	1.54 µM	> 25 µM
CCCNC(=S)N/N=C1\C(=O)Nc2ccccc21	> 25 µM	> 25 µM	> 25 µM
COc1ccc(NC(=S)NNC2=c3ccccc3=NC2=O)cc1	2.2 µM	> 25 µM	> 25 µM
CN(C)C(=S)N/N=C1/C(=O)Nc2ccccc21	> 25 µM	> 25 µM	> 25 µM

Source: ChEMBL document CHEMBL1759988, “Isatin-β-thiosemicarbazones as potent herpes simplex virus inhibitors” (Bioorg Med Chem Lett, 2011)
